Measurements: article PMC9166766 (Experimental & Molecular Medicine, 2022)

System: Jurkat T cells (PMA and ionomycin-induced gene expression)
Assay: mRNA sequencing of activated Jurkat T cells
Format: cell-based, human
Method: We then extracted RNA from these cells. Construction of the cDNA library and next-generation sequencing was performed at LAS (Gimpo, Korea). We sequenced all samples on an Illumina NextSeq 500 system with 75 paired-end reads. For the RNA sequencing analysis, reads for each sample were aligned to the human genome (GRCh37/hg19 genome assembly) using STAR 2.4.0.1[25] with default settings. We used HOMER tools to quantify and normalize the defined genes in RefSeq transcripts. FPKM normalized genes were hierarchically clustered using Cluster3.0[26]. We visualized refined data with Java Treeview (http://jtreeview.sourceforge.net). We conducted gene ontology analysis of each cluster using the DAVID web tool (https://david.ncifcrf.gov). Finally, we visualized the expression levels of target genes using the Integrative Genomics Viewer (http://software.broadinstitute.org/software/igv). The raw data were submitted to the NCBI Gene Expression Omnibus under accession number GSE185561.
Fig. 3 The CABIN1 peptide inhibits T-cell activation. a Heatmap of altered genes affected by FK506 treatment or CABIN1 peptide expression upon T-cell activation. b Gene Ontology analysis of cluster III. c mRNA expression levels of genes included in cluster III. d qRT-PCR data of genes in c. The experiment was independently repeated at least three times, and the data are presented as the mean ± standard deviation. Statistical differences were determined using two-tailed Student’s t-test. *p < 0.05, **p < 0.01, ***p < 0.001, NC negative control.

Compound: C=CC[C@@H]1/C=C(\C)C[C@H](C)C[C@H](OC)[C@H]2O[C@@](O)(C(=O)C(=O)N3CCCC[C@H]3C(=O)O[C@H](/C(C)=C/[C@@H]3CC[C@@H](O)[C@H](OC)C3)[C@H](C)[C@@H](O)CC1=O)[C@H](C)C[C@@H]2OC [FK506, reference compound]
- CD27 and CD70 expression (Jurkat, PMA and ionomycin 8 h): repressed
- RNA levels of T-cell activation markers (IL2, IL3, NFATC1, CCL4, CCL20, CXCL8) (Jurkat, PMA and ionomycin 8 h): reduced the RNA levels
- TM4SF1 expression (P+I 8 h, NC 0, NC_P+I 3.268): 0.439 FPKM
- CD200 expression (P+I 8 h, NC 0, NC_P+I 3.759): 0 FPKM
- ZP4 expression (P+I 8 h, NC 0, NC_P+I 6.38): 0.462 FPKM
- CCL3L1 expression (P+I 8 h, NC 0, NC_P+I 6.448): 0 FPKM
- CCL3L3 expression (P+I 8 h, NC 0, NC_P+I 6.524): 0 FPKM
- CCL1 expression (P+I 8 h, NC 0, NC_P+I 9.86): 0 FPKM
- NR4A2 expression (P+I 8 h, NC 0, NC_P+I 10.173): 0.04 FPKM
- CCL4L2 expression (P+I 8 h, NC 0, NC_P+I 12.758): 0.087 FPKM
- CCL4L1 expression (P+I 8 h, NC 0, NC_P+I 13.27): 0.087 FPKM
- CSF2 expression (P+I 8 h, NC 0, NC_P+I 23.497): 0 FPKM
- XCL1 expression (P+I 8 h, NC 0, NC_P+I 49.113): 0 FPKM
- CCL3 expression (P+I 8 h, NC 0, NC_P+I 52.239): 0 FPKM
- CCL20 expression (P+I 8 h, NC 0, NC_P+I 59.393): 0 FPKM
- IL3 expression (P+I 8 h, NC 0, NC_P+I 229.054): 0.062 FPKM
- CCL4 expression (P+I 8 h, NC 0, NC_P+I 247.287): 0 FPKM
- IL2 expression (P+I 8 h, NC 0, NC_P+I 397.807): 0.287 FPKM
- C3 expression (P+I 8 h, NC 0.006, NC_P+I 3.907): 0.489 FPKM
- TNS3 expression (P+I 8 h, NC 0.008, NC_P+I 13.196): 0.678 FPKM
- PLS3 expression (P+I 8 h, NC 0.019, NC_P+I 4.717): 0.052 FPKM
- CREB5 expression (P+I 8 h, NC 0.031, NC_P+I 4.533): 0.577 FPKM
- IRF4 expression (P+I 8 h, NC 0.034, NC_P+I 8.439): 0.423 FPKM
- CXCL8 expression (P+I 8 h, NC 0.037, NC_P+I 26.755): 0.937 FPKM
- SLAMF1 expression (P+I 8 h, NC 0.042, NC_P+I 5.663): 0.217 FPKM
- TNFSF14 expression (P+I 8 h, NC 0.045, NC_P+I 69.958): 1.023 FPKM
- IL21R-AS1 expression (P+I 8 h, NC 0.048, NC_P+I 23.616): 1.927 FPKM
- XCL2 expression (P+I 8 h, NC 0.056, NC_P+I 70.747): 0 FPKM
- LIF expression (P+I 8 h, NC 0.063, NC_P+I 3.697): 0.143 FPKM
- SHC4 expression (P+I 8 h, NC 0.069, NC_P+I 4.391): 0.663 FPKM
- RGS16 expression (P+I 8 h, NC 0.077, NC_P+I 29.102): 1.172 FPKM
- IL21R expression (P+I 8 h, NC 0.1, NC_P+I 34.712): 2.244 FPKM
- CRTAM expression (P+I 8 h, NC 0.104, NC_P+I 100.175): 3.325 FPKM
- ZNF704 expression (P+I 8 h, NC 0.107, NC_P+I 4.985): 0.014 FPKM
- NTRK1 expression (P+I 8 h, NC 0.167, NC_P+I 7.941): 0.836 FPKM
- PHEX expression (P+I 8 h, NC 0.188, NC_P+I 17.377): 0.213 FPKM
- SORBS1 expression (P+I 8 h, NC 0.196, NC_P+I 5.08): 0.4 FPKM
- TIAM2 expression (P+I 8 h, NC 0.255, NC_P+I 4.095): 0.27 FPKM
- CRIM1 expression (P+I 8 h, NC 0.268, NC_P+I 3.029): 0.305 FPKM
- SERPINB2 expression (P+I 8 h, NC 0.28, NC_P+I 85.882): 2.905 FPKM
- CCND2 expression (P+I 8 h, NC 0.321, NC_P+I 6.436): 0.558 FPKM
- CXCR3 expression (P+I 8 h, NC 0.604, NC_P+I 14.322): 0.503 FPKM
- ISM1 expression (P+I 8 h, NC 0.798, NC_P+I 56.893): 0.726 FPKM
- C10orf54 expression (P+I 8 h, NC 0.84, NC_P+I 7.506): 0.382 FPKM
- CSF1 expression (P+I 8 h, NC 0.848, NC_P+I 13.43): 1.706 FPKM
- SLC35E4 expression (P+I 8 h, NC 0.887, NC_P+I 9.069): 0.952 FPKM
- ZNF827 expression (P+I 8 h, NC 0.975, NC_P+I 3.401): 1.521 FPKM
- CD70 expression (P+I 8 h, NC 1.101, NC_P+I 61.146): 3.005 FPKM
- PAM expression (P+I 8 h, NC 1.154, NC_P+I 5.577): 1.483 FPKM
- FOXO1 expression (P+I 8 h, NC 1.167, NC_P+I 8.247): 1.77 FPKM
- IRF8 expression (P+I 8 h, NC 1.168, NC_P+I 14.813): 1.19 FPKM
- SCHIP1 expression (P+I 8 h, NC 1.25, NC_P+I 3.933): 1.535 FPKM
- FOSL2 expression (P+I 8 h, NC 1.294, NC_P+I 7.508): 2.204 FPKM
- TNFSF9 expression (P+I 8 h, NC 1.393, NC_P+I 7.107): 2.568 FPKM
- IQCJ-SCHIP1 expression (P+I 8 h, NC 1.402, NC_P+I 4.253): 1.657 FPKM
- STAT5A expression (P+I 8 h, NC 1.417, NC_P+I 9.105): 3.347 FPKM
- TDRD9 expression (P+I 8 h, NC 1.428, NC_P+I 25.902): 1.245 FPKM
